# Measurements as given in patent US9901639B2, “Bone marrow origin progenitor cell or endothelial progenitor cell in combination with DNMT1 gene therapy for vascular repair in metabolic disease” (Temple University—of the Commonwealth System of Higher …, priority 2015, dated 2018).
# Columns and labels:
# Type in all cases: cell-based, human
# hEPCs [1] = assay: hEPC adhesion assay on fibronectin; settings: L-Hcy 250 μmol/L, 48 h
# Excerpt: (§1) In this study EPCs refer to endothelial colony-forming cells (ECFCs) and their progenitor cell capacities were characterized as described (Wu, Y et al., J Thromb Haemost, 2010; 8:185-193; Wang, H et al., Circulation research, 2004; 94:843 and Stellos, K et al., Eur Heart J., 2009; 30:584-593). Briefly, human blood was collected from healthy volunteer donors. All volunteers had no risk factors of CVD including hypertension, diabetes, smoking, positive family history of premature CVD and hypercholesterolemia, and were all free of wounds, ulcers, retinopathy, recent surgery, inflammatory, malignant diseases, and medications that may influence EPC kinetics. After dilution with HBSS (1:1), blood was overlaid onto Histopaque 1077 (Sigma-Aldrich Co. LLC, St. Louis, Mo.) in the ratio of 1:1 and centrifuged at 740 g for 30 minutes at room temperature. Buffy coat MNCs were collected and centrifuged at 700 g for 10 minutes at room temperature. MNCs were cultured in collagen type I (BD Bioscience, San Diego) (50 m/ml)-coated dishes with EBM2 basal medium (Lonza Inc., Allendale, N.J.) plus standard EGM-2 SingleQuotes (Lonza Inc., Allendale, N.J.) that includes 2% fetal bovine serum (FBS), EGF (20 ng/ml), hydrocortisone (1 μg/ml), bovine brain extract (12 μg/ml), gentamycin (50 μg/ml), amphotericin B (50 ng/ml), and epidermal growth factor (10 ng/ml). Colonies appeared between 5 and 22 days of culture were identified as a well-circumscribed monolayer of cobblestone-appearing cells. […] After staining, cells were imaged with high-power fields under an inverted fluorescent microscope (Axiovert 200, Carl Zeiss, Thornwood, N.Y.) at 200× magnification and quantified using Image J software. […]
# EPC adhesion to extracellular matrix (ECM) was evaluated as previously described. […] Adherent cells were photographed with high-power fields under an inverted fluorescent microscope (Axiovert 200, Carl Zeiss, Thornwood, N.Y.) at 200× magnification and quantified by counting the attached cells using image J.
# hEPCs [2] = assay: hEPC scratch wound migration assay
# Excerpt: as §1, with “cells. ECFCs with endothelial lineage markers expression, robust proliferative potential, colony-forming, and vessel-forming activity in vitro are defined as EPCs as described (Wang, H et al., Circulation research, 2004; 94:843 and Stellos, K et al., Eur Heart J., 2009; 30:584-593). Passage 4 to 6 EPCs were used for experiments. For a brief characterization, endothelial phagocytosis function was confirmed by incubating EPC in 4-well chamber slide with 1, 1-dioctadecyl-3, 3, 3, 3-tetramethylindocarbocyanine (DiI)-labeled acetylated low-density lipoprotein (acLDL) (Biomedical Technologies, Inc., Stoughton, Mass.) (5 m/ml) at 37° C. for 1 h, washed 3 times for 15 min in PBS, and then fixed with 2% paraformaldehyde for 10 min.” for “cells.”
# EPC migration was evaluated using a scratch wound assay as previously described (Tan, H et al., Cardiovascular research, 2006; 69:253-262). […]
# hEPCs [3] = assay: hEPC 3H-thymidine incorporation proliferation assay; settings: L-Hcy 50 to 250 μmol/L, 24 h
# Excerpt: In this study EPCs refer to endothelial colony-forming cells (ECFCs) and their progenitor cell capacities were characterized as described (Wu, Y et al., J Thromb Haemost, 2010; 8:185-193; Wang, H et al., Circulation research, 2004; 94:843 and Stellos, K et al., Eur Heart J., 2009; 30:584-593). Briefly, human blood was collected from healthy volunteer donors. All volunteers had no risk factors of CVD including hypertension, diabetes, smoking, positive family history of premature CVD and hypercholesterolemia, and were all free of wounds, ulcers, retinopathy, recent surgery, inflammatory, malignant diseases, and medications that may influence EPC kinetics. […] After staining, cells were imaged with high-power fields under an inverted fluorescent microscope (Axiovert 200, Carl Zeiss, Thornwood, N.Y.) at 200× magnification and quantified using Image J software. […]
# ^3H thymidine incorporation assay was used to detect EPC proliferation activity as previously described (Tan, H et al., Cardiovascular research, 2006; 69:253-262). ^3EPCs were seeded onto 24-well plates (5×10^4 cells/well) in EGM2 medium and exposed to L-Hcy (50 to 250 μmol/L) for 24 h after grown to 70-80% confluence. […] Incorporated [methyl-^3H] thymidine was measured in a liquid scintillation counter (PerkinElmer Inc. Waltham, Mass., USA).
# hEPCs [4] = assay: hEPC viability by crystal violet staining; settings: L-Hcy 48 h
# Method: Confluent hEPCs were treated with L-Hcy at indicated concentrations for functional studies as described in the section of Methods. FIG. 5A. […] FIG. 5B. Representative images of hEPC adhesion. hEPCs treated with L-Hcy for 48 h were harvested and plated on fibronectin-coated cell culture plates for 1 hour at 37° C. Attached cells were photographed and quantified in high-power fields under an inverted microscope. FIG. 5C. Quantitative analysis of adhesion. FIG. 5D. Representative images of hEPC migration. Confluent hEPCs were incubated with L-Hcy for 48 h, scratched to create a wound and evaluated for migration after 20 h. E. Quantitative analysis of migration. FIG. 5F. Quantitative analysis of hEPC proliferation. 80% confluent hEPCs were treated with L-Hcy for 24 h and labeled with ^3[H]-thymidine for the last 4 h. Incorporated ^3[H]-thymidine was measured in a liquid scintillation counter. FIG. 5G. Quantitative analysis of hEPC viability. Confluent hEPCs were treated with L-Hcy for 48 h and nuclear counts determined by crystal violet staining to determine the viable cells. Data are representative of 3 separate experiments and are shown as mean±SD. *P<0.05 versus control. hEPCs; human endothelial progenitor cells; Hcy, homocysteine.
compound,measurement,setting,value
"N[C@@H](CCS)C(=O)O [L-Hcy, homocysteine]",EPC adhesion to fibronectin compared with the control,hEPCs [1],57%
same,Hcy-suppressed adhesion in hEPC (without 12G10),hEPCs [1]; adhesion rescue experiment,62%
same,EPC adhesion to fibronectin,hEPCs [1]; control 0.13±0.006,0.06±0.008 OD630 nm
same,hEPC migration (value in brackets),hEPCs [2]; Hcy 100 μmol/L,54.6±2.8
same,hEPC migration reduced to,hEPCs [2]; Hcy 100 μmol/L,68%
same,hEPC migration (value in brackets),hEPCs [2]; Hcy 250 μmol/L,49.7±1.1
same,hEPC migration reduced to,hEPCs [2]; Hcy 250 μmol/L,62%
same,DNA synthesis ([3H] thymidine uptake),hEPCs [3],dose sensitively inhibited
same,EPC viability,hEPCs [4],no effect
